# From patent US20030175979A1, “System and method for characterizing metabolites using hydrogen/deuterium exchange” (priority 2002, published 2003)
# “Also recorded” adds a separate entry of the source.
# How the values were obtained:
# dog liver hepatocytes = experiment: Incubation of [14C]PD 0200126 with dog hepatocytes, radiochromatographic metabolite profile; type: in vitro ADME; details: [14C]PD 0200126 incubated with dog hepatocytes for 180 minutes; flow-through radioactivity detector
# Description: In Vitro Study. A proposed metabolite M2 (PD 0200126-glucuronide) was formed following incubation of [^14C]PD 0200126 with dog liver hepatocytes for 180 minutes.
# Apparatus and Conditions. An Agilent 1100 HPLC system (Agilent Technologies, Wilmington, Del.), including pumps, autoinjector, and UV detector, was used to separate the metabolites. Separation of the metabolites was achieved using a Metasil AQ guard column (Metachem Technologies, Torrance, Calif.) and a 150 mm×4.6 mm MetaChem Polaris C-18 reversed-phase HPLC column (Metachem Technologies). […]
# After passing through the UV detector (280 nm), the HPLC effluent was split so that 20%-30% of the flow was introduced into the mass spectrometer via an ESI source supplied with the mass spectrometer, while 70%-80% was diverted to the radioactivity detector (β-RAM, IN/US, Tampa, Fla.). The analog output from the UV detector, along with the MS signal, were recorded in real time by the data system provided with the mass spectrometer (Xcalibur V 1.2, ThermoFinnigan). […] The β-RAM data was integrated to obtain semi-quantitative information about the metabolites and the unchanged drug. The delay in response between the radioactivity detector and the MS was 0.2 min -0.4 min with the MS response being recorded first. […]
# [1] = Metabolite profile in rabbit plasma after oral administration of PD 0200126 (LC-UV/MS); type: in vivo; details: 300 mg/kg oral PD 0200126, UV 280 nm and LC-MS
# Description: In Vivo Studies. To obtain plasma samples, blood from rabbits was collected at various time points following a 300 mg/kg oral administration of PD 0200126. Plasma was precipitated by addition of 3 volumes of acetonitrile to 1 volume of plasma and then centrifuged. The resulting supernatant was decanted off, dried, and subsequently reconstituted in the mobile phase solvent (described below) prior to injection in the HPLC. A 100-μL aliquot was injected for each experiment (run).
# Apparatus and Conditions. An Agilent 1100 HPLC system (Agilent Technologies, Wilmington, Del.), including pumps, autoinjector, and UV detector, was used to separate the metabolites. Separation of the metabolites was achieved using a Metasil AQ guard column (Metachem Technologies, Torrance, Calif.) and a 150 mm×4.6 mm MetaChem Polaris C-18 reversed-phase HPLC column (Metachem Technologies). The mobile phase comprised 20-mM ammonium acetate in water adjusted to pH 4 with acetic acid (Solvent A) and acetonitrile (Solvent B), and was maintained at a constant flow rate (1 mL/min) throughout each run. Gradient elution of the metabolites was achieved using programmed stepwise changes of solvent A/B ratios of 95/5, 50/50, 25/75, 5/95, and 95/5 at 0, 40, 50, 60, and 75 min, respectively.
# After passing through the UV detector (280 nm), the HPLC effluent was split so that 20%-30% of the flow was introduced into the mass spectrometer via an ESI source supplied with the mass spectrometer, while 70%-80% was diverted to the radioactivity detector (β-RAM, IN/US, Tampa, Fla.). The analog output from the UV detector, along with the MS signal, were recorded in real time by the data system provided with the mass spectrometer (Xcalibur V 1.2, ThermoFinnigan). A separate software program (Win-Flow V 1.5, IN/US, Tampa, Fla.) was used to control the β-RAM and to collect the analog output from the β-RAM. The β-RAM data was integrated to obtain semi-quantitative information about the metabolites and the unchanged drug. The delay in response between the radioactivity detector and the MS was 0.2 min -0.4 min with the MS response being recorded first.
# Trace amounts of PD 0200126 and M10 were also observed at m/z 425 and 409, respectively. Metabolites M1-M6 were characterized in a separate study involving rat and mouse hepatocytes.
SMILES,share of the total radioactivity associated with the component (dog liver hepatocytes),abundance of drug/metabolite in plasma (UV component / extracted ion chromatogram) [1],abundance of drug/metabolite in plasma (UV component / extracted ion chromatogram) ([1]; 300 mg/kg)
"CC(C)[C@@H](NS(=O)(=O)c1ccc(-c2ccc(Br)cc2)cc1)C(=O)NOC1OC(C(=O)O)C(O)C(O)C1O (stereo partly drawn) [Metabolite M2, PD 0200126-glucuronide]",more than 90%,,
"NS(=O)(=O)c1ccc(-c2ccc(Br)cc2)cc1 [Metabolite M8, bromo-biphenylsulfonamide]",,prominent UV components,
CC(C)[C@@H](NS(=O)(=O)c1ccc(-c2ccc(Br)cc2)cc1)C(N)=O [Metabolite M10],,,Trace amounts; also recorded: minor UV component

# More lines, main results first:
share of the total radioactivity associated with the component (dog liver hepatocytes),abundance of drug/metabolite in plasma (UV component / extracted ion chromatogram) [1],SMILES,abundance of drug/metabolite in plasma (UV component / extracted ion chromatogram) ([1]; 300 mg/kg)
minor amounts,prominent UV components,"CC(C)[C@@H](NS(=O)(=O)c1ccc(-c2ccc(Br)cc2)cc1)C(=O)O [Metabolite M9, PD 0200126-carboxylic acid]",
,Trace amounts,"CC(C)[C@@H](NS(=O)(=O)c1ccc(-c2ccc(Br)cc2)cc1)C(=O)NO [PD 0200126, 2-(4′-bromo-biphenyl-4-sulfonylamino)-N-hydroxy-3-methyl-butyramide]",
